Measurements published in patent publication US20240016941A1, “COMBINATION THERAPY” (priority 2020, published 2024).

Legend:
[1] = molecular target: T1, purified LasB protein from P. aeruginosa (Pseudomonas aeruginosa, UniProt P14756); experiment: Fluorometric assay to determine Ki (purified LasB, Abz-Ala-Gly-Leu-Ala-p-Nitro-Benzyl-Amide substrate); type: biochemical
T1 construct: purchased Merck or Charles River Laboratories
Experimental: (§1) Experiments were therefore conducted (1) to measure the potency of inhibition of compounds of the invention against purified Pseudomonas aeruginosa LasB enzyme and also experiments were conducted (2) to measure the ability of compounds of the invention to inhibit LasB-catalysed elastin degradation. The first assay uses a commercial fluorescent synthetic peptide and purified LasB enzyme. The LasB hydrolysis kinetics are measured allowing the determination of the IC50 and Ki of the inhibitors; the second is a more physiological assay using dialysed Pseudomonas aeruginosa supernatant as source of enzyme, plus its natural substrate Elastin. It is an “end point assay” that determines the percentage of LasB inhibition by each compound for one particular time point and inhibitor concentration. Technical details are described below:
This assay uses commercially available substrate (Abz-Ala-Gly-Leu-Ala-p-Nitro-Benzyl-Amide (Ex: 340 nm, Em: 415 nm) from Peptide International) and purified LasB protein from P. aeruginosa (provided by Merck or Charles River Laboratories). It is performed to determine LasB elastase activity and assess compound inhibition in 96-well plate format. All compounds of Formula (I) were assessed using the method described below.
Method: 10 to 140 ng/ml purified LasB is incubated with 250 μM Abz-Ala-Gly-Leu-Ala-p-Nitro-Benzyl-Amide in 50 mM Tris-HCl pH 7.4, 2.5 mM CaCl2), 0.01% of Triton X100 at 37° C. LasB activity (corresponding to fluorescence emission induced by substrate hydrolysis) is measured over 30 min at 37° C. with a fluorescence plate reader such as the Perkin Elmer Envision or similar. Different range of inhibitor concentrations are routinely assessed depending of inhibitor potency from 0.0016 to 200 μM (2-fold dilutions series) in order to determine IC50.
The equation used to calculate the Ki from IC50 is: Ki=IC50/(1+([S]/Km)) where [S]=250 μM and Km=214 μM.

[2] = molecular target: T2, LasB elastase activity of dialysed supernatant from P. aeruginosa PAO1 (Pseudomonas aeruginosa, UniProt P14756); experiment: Elastin Congo-Red assay to determine % inhibition (dialysed PAO1 supernatant); type: biochemical; conditions: read-out: Elastin hydrolysis % inhibition @ 25 μM inhibitor concentration
T2 construct: Culture supernatants are recovered by centrifugation and filtrated through a 0.22 μM filter; endogenous in cells; host or cells: P. aeruginosa strain PAO1, culture supernatant, filtered and dialysed
Experimental: as §1
The Elastin assay uses as source of enzyme dialysed supernatant from P. aeruginosa PAO1 and the Elastin Congo-Red as substrate. The natural LasB substrate, elastin, is complexed with the congo-red dye (Elastin Congo-Red, ECR). The elastolysis activity from the culture supernatant will degrade elastin and release the congo-red dye into the supernatant. This red dye release can be measured with a spectrophotometer.
Method: To determine LasB elastase activity and assess compound inhibition, an overnight culture of P. aeruginosa strain PAO1 is diluted in LB medium. After reaching an OD600nm of 0.6, this culture is diluted and incubated for additional 18-24 hours in a shaking incubator. Culture supernatants are recovered by centrifugation and filtrated through a […] filter. These supernatants are dialysed (filtration molecules <20 kDa) into a 50 mM Tris-HCl pH 7.4, 2.5 mM CaCl2 solution at 4° C. under agitation for 24 hours. Supernatant dialysed is then mixed volume/volume with the ECR suspension (20 mg/mL of ECR in 100 mM Tris-HCl pH 7.4 buffer supplemented with 1 mM CaCl2)) supplemented with Triton X100 (final concentration of 0.01%) in presence of DMSO (positive control) and/or different concentrations of compound (routinely 50 to 1.56 μM). As a negative control, the dialysed supernatant is replaced by Tris-HCl solution (50 mM Tris-HCl pH 7.4, 2.5 mM CaCl2). The mixed reaction is then incubated overnight in a 37° C. shaking incubator. The reaction supernatant is recovered by centrifugation and the release of congo-red is measured by its absorbance at 495 nm (OD495nm).
Percentage inhibition is determined using the following equation:
((OD495 nm value of positive control−OD495nm value of negative control)−(OD495nm value of treated supernatant−OD495nm value of negative control))/(OD495nm value of positive control−OD495nm value of negative control)×100.

T1 sequence (P14756 198-498): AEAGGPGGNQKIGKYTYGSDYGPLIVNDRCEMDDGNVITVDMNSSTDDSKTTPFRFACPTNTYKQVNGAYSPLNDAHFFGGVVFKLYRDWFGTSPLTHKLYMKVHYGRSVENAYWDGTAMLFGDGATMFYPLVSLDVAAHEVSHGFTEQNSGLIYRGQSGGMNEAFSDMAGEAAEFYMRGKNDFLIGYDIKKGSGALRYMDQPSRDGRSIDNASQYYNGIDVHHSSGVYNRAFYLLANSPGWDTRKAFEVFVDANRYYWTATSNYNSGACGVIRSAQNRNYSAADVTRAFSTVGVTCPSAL
T2 sequence (P14756 198-498): as above

| Compound | Ki [1] | inhibition at 25 µM [2] |
| --- | --- | --- |
| CN1CCN(C(=O)c2ccc3sc(CNC(=O)C4(CC(=O)O)Cc5ccccc5C4)nc3c2)CC1 [Example 27, 2-[2-[[5-(4-methylpiperazine-1-carbonyl)-1,3-benzothiazol-2-yl]methylcarbamoyl]indan-2-yl]acetic acid] | 50 to 200 nM | 60 to 80% |
| COc1cc2sc(CNC(=O)C3(CC(=O)O)Cc4ccccc4C3)nc2cc1OCC(=O)N1CCN(C)CC1 [Example 8, 2-[2-[[6-methoxy-5-[2-(4-methylpiperazin-1-yl)-2-oxo-ethoxy]-1,3-benzothiazol-2-yl]methylcarbamoyl]indan-2-yl]acetic acid] | 50 to 200 nM | 60 to 80% |
| COc1cc2sc(CNC(=O)C3(CC(=O)O)Cc4cc(F)c(F)cc4C3)nc2cc1C(=O)N1CC(N(C)C)C1 [Example 37, 2-[2-[[5-[3-(dimethylamino)azetidine-1-carbonyl]-6-methoxy-1,3-benzothiazol-2-yl]methylcarbamoyl]-5,6-difluoro-indan-2-yl]acetic acid] | < 50 nM | > 80% |
| COc1cc2sc(CNC(=O)C3(CC(=O)O)Cc4ccccc4C3)nc2cc1C(=O)N1CCC(N(C)C)CC1 [Example 38, 2-[2-[[5-[4-(dimethylamino)piperidine-1-carbonyl]-6-methoxy-1,3-benzothiazol-2-yl]methylcarbamoyl]indan-2-yl]acetic acid] | 50 to 200 nM | 60 to 80% |
| O=C(O)CC1(C(=O)NCc2nc3c(S(=O)(=O)N4CCNCC4)cccc3s2)Cc2ccccc2C1 [Example 5, 2-[2-[(4-piperazin-1-ylsulfonyl-1,3-benzothiazol-2-yl)methylcarbamoyl]indan-2-yl]acetic acid] | 200 to 10000 nM | – |
| N#Cc1ccc2nc(CNC(=O)C3(CC(=O)O)Cc4ccccc4C3)sc2c1 [Example 48, 2-[2-[(6-cyano-1,3-benzothiazol-2-yl)methylcarbamoyl]indan-2-yl]acetic acid] | 50 to 200 nM | 60 to 80% |
| NC1CCN(S(=O)(=O)c2cccc3sc(CNC(=O)C4(CC(=O)O)Cc5ccccc5C4)nc23)C1 (stereo not shown) [Example 6, 2-[2-[[4-(3-aminopyrrolidin-1-yl)sulfonyl-1,3-benzothiazol-2-yl]methylcarbamoyl]indan-2-yl]acetic acid] | 50 to 200 nM | 60 to 80% |
| CN1CCN(C(=O)c2ccc3nc(CNC(=O)C4(CC(=O)O)Cc5ccccc5C4)sc3c2)CC1 [Example 29, 2-[2-[[6-(4-methylpiperazine-1-carbonyl)-1,3-benzothiazol-2-yl]methylcarbamoyl]indan-2-yl]acetic acid] | 200 to 10000 nM | – |
| COc1cc2sc(CNC(=O)C3(CC(=O)[O-])Cc4cc(F)c(F)cc4C3)nc2cc1C(=O)N1CC[N+](C)(C)CC1 [Example 35, 2-[2-[[5-(4,4-dimethylpiperazin-4-ium-1-carbonyl)-6-methoxy-1,3-benzothiazol-2-yl]methylcarbamoyl]-5,6-difluoro-indan-2-yl]acetate] | 50 to 200 nM | 60 to 80% |
| COc1cc2sc(CNC(=O)C3(CC(=O)[O-])Cc4cc(F)c(F)cc4C3)nc2cc1OCC[N+]1(C)CCOCC1 [Example 13, 2-[5,6-difluoro-2-[[6-methoxy-5-[2-(4-methylmorpholin-4-ium-4-yl)ethoxy]-1,3-benzothiazol-2-yl]methylcarbamoyl]indan-2-yl]acetate] | 50 to 200 nM | 60 to 80% |
| CN(C)C1CN(C(=O)c2ccc3nc(CNC(=O)C4(CC(=O)O)Cc5ccccc5C4)sc3c2)C1 [Example 26, 2-[2-[[6-[3-(dimethylamino)azetidine-1-carbonyl]-1,3-benzothiazol-2-yl]methylcarbamoyl]indan-2-yl]acetic acid] | 200 to 10000 nM | – |
| COc1cc2sc(CNC(=O)C3(CC(=O)[O-])Cc4cc(F)c(F)cc4C3)nc2cc1OCC[N+](C)(C)C [Example 56, 2-[5,6-difluoro-2-[[6-methoxy-5-[2-(trimethylammonio)ethoxy]-1,3-benzothiazol-2-yl]methylcarbamoyl]indan-2-yl]acetate] | 50 to 100 nM | – |
| COc1cc2sc(CNC(=O)C3(CC(=O)[O-])Cc4ccccc4C3)nc2cc1C(=O)N1CCC([N+](C)(C)C)CC1 [Example 39, 2-[2-[[6-methoxy-5-[4-(trimethylammonio)piperidine-1-carbonyl]-1,3-benzothiazol-2-yl]methylcarbamoyl]indan-2-yl]acetate] | 200 to 10000 nM | – |
| O=C(O)CC1(C(=O)NCc2nc3c(C(=O)N4CCCC4)cccc3s2)Cc2ccccc2C1 [Example 2, 2-[2-[[4-(pyrrolidine-1-carbonyl)-1,3-benzothiazol-2-yl]methylcarbamoyl]indan-2-yl]acetic acid] | 200 to 10000 nM | – |
| CN(C)CCNC(=O)c1ccc2nc(CNC(=O)C3(CC(=O)O)Cc4ccccc4C3)sc2c1 [Example 30, 2-[2-[[6-[2-(dimethylamino)ethylcarbamoyl]-1,3-benzothiazol-2-yl]methylcarbamoyl]indan-2-yl]acetic acid] | 200 to 10000 nM | – |
| COc1cc2sc(CNC(=O)C3(CC(=O)[O-])Cc4ccccc4C3)nc2cc1OCCOCC[N+](C)(C)C [Example 54, 2-[2-[[6-methoxy-5-[2-[2-(trimethylammonio)ethoxy]ethoxy]-1,3-benzothiazol-2-yl]methylcarbamoyl]indan-2-yl]acetate] | 50 to 100 nM | – |
| COc1cc2sc(CNC(=O)C3(CC(=O)O)Cc4ccccc4C3)nc2cc1OCCCN(C)C [Example 52, 2-[2-[[5-[3-(dimethylamino)propoxy]-6-methoxy-1,3-benzothiazol-2-yl]methylcarbamoyl]indan-2-yl]acetic acid] | 50 to 100 nM | – |
| CN(C)CCCN1CCN(C(=O)c2ccc3sc(CNC(=O)C4(CC(=O)O)Cc5ccccc5C4)nc3c2)CC1 [Example 31, 2-[2-[[5-[4-[3-(dimethylamino)propyl]piperazine-1-carbonyl]-1,3-benzothiazol-2-yl]methylcarbamoyl]indan-2-yl]acetic acid] | 200 to 10000 nM | – |
| O=C(O)CC1(C(=O)NCc2nc3ccc(OCCCO)cc3s2)Cc2ccccc2C1 [Example 50, 2-[2-[[6-(3-hydroxypropoxy)-1,3-benzothiazol-2-yl]methylcarbamoyl]indan-2-yl]acetic acid] | 50 to 100 nM | – |
| CCCOc1ccc2nc(CNC(=O)C3(CC(=O)O)Cc4ccccc4C3)sc2c1 [Example 51, 2-[2-[(6-propoxy-1,3-benzothiazol-2-yl)methylcarbamoyl]indan-2-yl]acetic acid] | 50 to 100 nM | – |
| NS(=O)(=O)c1cccc2sc(CNC(=O)C3(CC(=O)O)Cc4ccccc4C3)nc12 [Example 4, 2-[2-[(4-sulfamoyl-1,3-benzothiazol-2-yl)methylcarbamoyl]indan-2-yl]acetic acid] | 200 to 10000 nM | – |
| CS(=O)(=O)c1cccc2sc(CNC(=O)C3(CC(=O)O)Cc4ccccc4C3)nc12 [Example 7, 2-[2-[(4-methylsulfonyl-1,3-benzothiazol-2-yl)methylcarbamoyl]indan-2-yl]acetic acid] | 200 to 10000 nM | – |
| CN(C)CCNC(=O)c1ccc2sc(CNC(=O)C3(CC(=O)O)Cc4ccccc4C3)nc2c1 [Example 28, 2-[2-[[5-[2-(dimethylamino)ethylcarbamoyl]-1,3-benzothiazol-2-yl]methylcarbamoyl]indan-2-yl]acetic acid] | 200 to 10000 nM | – |
